{"source": "patent US20090170939A1", "about": "“Use of Fenofibrate or a Derivative Thereof for Preventing Diabetic Retinopathy” (Laboratoires Fournier S.A., priority 2005, published 2009)", "system": "diabetic retinopathy in patients with type 2 diabetes", "assay": "FIELD study: laser treatment for diabetic retinopathy (tertiary outcome)", "assay_type": "in vivo, human", "settings": "follow-up more than 5 years", "description": "As fibrates are known to correct the typical dyslipidaemia of diabetes, their role in cardiovascular risk reduction in diabetes may be especially important. A study called Fenofibrate Intervention and Event Lowering in Diabetes (FIELD) has been carried out which study is a multicentre, double-blind, placebo-controlled trail evaluating the effects on coronary morbidity and mortality of long-term treatment with fenofibrate to elevate high-density lipoprotein (HDL) cholesterol levels and lower triglyceride (TG) levels in patients with type 2 diabetes and total blood cholesterol between 3 and 6.5 mmol/L (115 and 250 mg/dL) at study entry. In type 2 diabetes, rates of coronary heart disease (CDH) are 3 to 4 times higher than those of persons without diabetes at any given level of blood cholesterol, and at any given age. […] Further, people with type 2 diabetes have both higher in hospital mortality after myocardial infarction (MI) and a poorer outcome in the subsequent years, losing on average between 5 and 10 years of life expectancy.\nThe study was is randomized, double-blind, placebo-controlled parallel-group trial among middle-aged to elderly people with type 2 diabetes mellitus considered to be at increased risk of CHD. Those with and without pre-existing vascular disease or other lipid abnormalities, such as low HDL cholesterol and elevated TG, were eligible, provided the total blood cholesterol level at screening fell between 3.0 and 6.5 mmol/L (about 115-250 mg/dL) plus either a total-to-HDL cholesterol ratio of >4.0 or a blood TG level >1.0 mmol/L (88.6 mg/dL). The study has been conducted in 63 clinical centres in Australia (39), Finland (9) and New Zealand (15).\nThe underlying principle guiding recruitment of patients into the study was that of clinical uncertainty: that is, patients were only to be considered if the patients' treating physicians were substantially uncertain about the value of lipid-modifying therapy for that particular individual and felt that there was no indication for lipid-modifying therapy. […]"}
{"compound": "CC(C)OC(=O)C(C)(C)Oc1ccc(C(=O)c2ccc(Cl)cc2)cc1", "note": "[Fenofibrate, 1-methylethyl ester (isopropyl ester) of fenofibric acid]", "values": [{"measurement": "Patients with laser treatment for diabetic retinopathy (one or more laser treatments), %", "setting": "fenofibrate 200 mg comicronized, one capsule daily, type 2 diabetes", "result": 3.6, "unit": "%"}, {"measurement": "Incident cases (first laser treatment for retinopathy post-randomisation), %", "setting": "fenofibrate 200 mg daily", "result": 2.3, "unit": "%"}, {"measurement": "Prevalent cases (all reported laser treatments post-randomisation), %", "setting": "fenofibrate 200 mg daily", "result": 7.3, "unit": "%"}]}
